In US20020172990A1, “Cyclin dependent kinase 5 phosphorylation of disabled 1 protein” (priority 2002, published 2002):

Test system: Dab1 phosphorylation in embryonic neurons
Assay: Reelin stimulation of embryonic neurons, Dab1 immunoprecipitation and Western blot
Type: cell-based, mouse
Protocol: Stimulation of embryonic neurons with purified Reelin has been described previously (Keshvara et al., J Biol Chem 276:16008-16014, 2001). Briefly, neurons obtained by trituration of embryonic brains were treated either with purified recombinant Reelin or with a control supernatant for 15 minutes at 37° C. After incubation neurons were either snap frozen or lysed immediately. Reelin-treated neuronal pellets were lysed in cell lysis buffer (25 mM Tris-HCl, 1% Nonidet P-40, 150 mM NaCl, 5 mM EDTA, 1 mM sodium orthovanadate, 20 mM sodium fluoride, and 20 μg/ml each of aprotinin and leupeptin). Whole brains were also homogenized in this lysis buffer. Cell lysates as well as brain homogenates were clarified by centrifugation at 10,000× g at 4° C. for 20 min.
Cell or brain lysates were incubated with anti-Cdk5 or anti-Dab1 antibodies at 4° C. for 2 hr. Immune complexes were collected with protein G-agarose beads (Pierce) and washed three times with cell lysis buffer. Immunoprecipitates were boiled in SDS sample buffer, separated by SDS-PAGE, and blotted to nitrocellulose membranes. Nitrocellulose membranes were blocked with 5% non-fat dry milk in TBST (50 mM Tris, pH 7.4, 150 mM NaCl, 1% Tween 20) for 1 hr at room temperature. The following antibodies were used for various immunoblots: anti-PSer491 (1:1000), anti-Cdk5 (1:2000), anti-PY198 (1:100), 4G10 (1:2000) (Upstate Biotechnology, Lake Placid, N.Y.), and anti-Dab1 (CT38, 1:5000). All dilutions were made in blocking solution, and incubations were carried out at room temperature for one hour. The membranes were washed in TBST and incubated with horseradish peroxidase-conjugated secondary antibody (1:10,000) for 1 hr. Detection was carried out using Super Signal West Dura Extended Duration Substrate (Pierce).
Since the accumulation of hypophosphorylated Dab1 in Cdk5^−/− neurons implies that Reelin signaling is defective, we sought to determine whether the defect in Reelin signaling is intrinsic to Cdk5-deficient neurons or whether it arises as an indirect consequence of the ectopic location of these neurons. […]

For “Reelin: Large secreted glycoprotein; purified recombinant Reelin used to stimulate embryonic neurons”, the “Tyrosine phosphorylation of Dab1” value (neurons from E16.5 Cdk5-/- embryos, Reelin-enriched DMEM vs DMEM alone, 4G10 anti-phosphotyrosine blot) was “sharp increase in tyrosine phosphorylation of Dab1”, the “Tyrosine phosphorylation of Dab1” value (neurons from E16.5 reeler brains, exogenous Reelin 15 minutes at 37° C.) was “sharp increase in tyrosine phosphorylation of Dab1” and the “Serine 491 phosphorylation of Dab1” value (neurons from E16.5 reeler brains, exogenous Reelin 15 minutes at 37° C., anti-PSer491 blot) was “did not cause any noticeable change”.
